Test in all cases: cells
Holding throughout (type): cell-based

For one assay, the system named is A549. Particulars: Homo sapiens, A549, 72 h.
In a further assay the test system is A-375. The settings on record: Homo sapiens, A-375, 72 h.
The test system of another assay is SK-OV-3. Particulars: Homo sapiens, SK-OV-3, 72 h.
In a further assay the test system is SK-HEP-1. Particulars: Homo sapiens, SK-HEP1, 72 h.
The next assay deals with U-937. Particulars: Homo sapiens, U-937, 72 h.
Another assay concerns A-431. The settings on record: Homo sapiens, A-431, 72 h.
The test system of the next assay is HCC827. The settings on record: Homo sapiens, HCC827, 72 h.
The test system of a further assay is NCI-H1299. The settings on record: Homo sapiens, NCI-H1299, 72 h.

By pIC50 is commonly meant −log10 of the IC50, conventionally taken in molar units.

Molecules are shown by their SMILES. pIC50: −log10 of the molar value.

For the molecule `CN[C@@H]1C[C@H]2O[C@@](C)([C@@H]1OC)n1c3ccccc3c3c4c(c5c6ccccc6n2c5c31)C(=O)NC4` [Staurosporine], the pIC50 in the assay on A549 is 7.88; in the assay with A-375 it was 7.74; in the assay with SK-OV-3, 7.55; in the assay on SK-HEP-1, 7.77; in the assay with U-937 it was 7.86; in the assay on A-431, 7.68. The pIC50 with HCC827 is 7.79; in the assay with NCI-H1299 it was 8.04.

For the origin of these results see patent publication US20240391942A1 (priority 2021, published 2024).
